The target in experiment [1] is Gamma-aminobutyric acid receptor subunit alpha-6 (Homo sapiens, UniProt Q16445).
Experiment [2] addresses Gamma-aminobutyric acid receptor subunit alpha-4 (Homo sapiens, UniProt P48169).

One may read the Ki as a measure of affinity in units of concentration, obtained from inhibition or displacement. Lower therefore signals higher affinity.

Gamma-aminobutyric acid receptor subunit alpha-4, sequence (P48169 whole entry): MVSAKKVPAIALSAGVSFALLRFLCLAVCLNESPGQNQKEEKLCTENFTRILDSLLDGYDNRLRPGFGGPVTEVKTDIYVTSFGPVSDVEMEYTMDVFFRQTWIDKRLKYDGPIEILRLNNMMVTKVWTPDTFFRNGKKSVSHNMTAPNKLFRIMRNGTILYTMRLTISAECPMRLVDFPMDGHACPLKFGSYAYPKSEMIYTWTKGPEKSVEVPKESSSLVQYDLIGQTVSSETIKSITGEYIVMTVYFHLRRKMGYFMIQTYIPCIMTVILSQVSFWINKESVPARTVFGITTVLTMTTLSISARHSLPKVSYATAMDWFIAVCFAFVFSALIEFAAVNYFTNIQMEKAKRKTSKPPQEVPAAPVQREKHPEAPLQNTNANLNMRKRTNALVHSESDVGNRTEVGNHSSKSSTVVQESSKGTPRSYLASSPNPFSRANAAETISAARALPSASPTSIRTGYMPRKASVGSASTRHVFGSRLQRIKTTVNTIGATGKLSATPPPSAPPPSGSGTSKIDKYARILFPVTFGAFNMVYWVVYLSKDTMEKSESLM
Gamma-aminobutyric acid receptor subunit alpha-6, sequence (Q16445 whole entry): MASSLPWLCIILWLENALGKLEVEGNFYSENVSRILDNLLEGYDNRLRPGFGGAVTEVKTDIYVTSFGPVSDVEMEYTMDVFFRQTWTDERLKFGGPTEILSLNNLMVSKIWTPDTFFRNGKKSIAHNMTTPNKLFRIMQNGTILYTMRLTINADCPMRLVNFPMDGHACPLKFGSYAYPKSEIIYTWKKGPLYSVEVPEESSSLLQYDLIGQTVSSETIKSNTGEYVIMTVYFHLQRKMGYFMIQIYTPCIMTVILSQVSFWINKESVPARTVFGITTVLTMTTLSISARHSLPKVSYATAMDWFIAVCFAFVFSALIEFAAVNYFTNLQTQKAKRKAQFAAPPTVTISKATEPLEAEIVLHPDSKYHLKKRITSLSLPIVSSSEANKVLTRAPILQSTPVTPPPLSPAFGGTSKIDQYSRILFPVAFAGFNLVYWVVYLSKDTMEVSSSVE

Turning to `CNC(=O)c1cc2c(cn1)[nH]c1ccccc12` [CAS_4375], the inhibitory constant (Ki) in experiment [1] amounted to 2.51 µM; in experiment [2] it was 0.3 µM.
Consider `CCc1c(C(=O)OC)ncc2[nH]c3cc(OC)c(OC)cc3c12` [NSC_104999], for which the values for the Ki in experiment [1] and in experiment [2] were 0.153 µM and 0.0141 µM, respectively.
On the same counts, the results for `COC(=O)c1cc2c(cn1)[nH]c1ccccc12` are 3.26 µM and 0.31 µM.
On the same counts, the results for `CC(C)(C)OC(=O)c1ncn2c1C1CCCN1C(=O)c1c(Br)cccc1-2` (stereo not drawn) [8-Bromo-7-oxo-3b,4,5,6-tetrahydro-7H-2,6a,11b-triaza-benzo[g]cyclopenta[e]azulene-3-carboxylic acid tert-butyl ester] are 0.0549 µM and 0.0535 µM.
On the same counts, the results for `O=c1c2cnc3ccccc3c2[nH]n1-c1ccc(Cl)cc1` are 0.285 µM and 0.0356 µM.
`COc1ccc(-n2[nH]c3c(cnc4ccccc43)c2=O)cc1` [2-(4-Methoxy-phenyl)-2,5-dihydro-pyrazolo[4,3-c]quinolin-3-one (CGS 9895)]: the inhibition constant Ki was found to be 0.0438 µM in experiment [1] and 0.0068 µM in experiment [2].
On to `CCOC(=O)c1ncn2c1CN(C)C(=O)c1cc(N=[N+]=[N-])ccc1-2` [RO-154513], for which affinity in experiment [1] was put at a Ki of 0.0117 µM. This lies in the double-digit nanomolar range.

The values above are taken from BindingDB's records for doi:10.1016/0922-4106(95)90072-1 (Cocensys, 1995).
